Test [1] relates to TNFα. Put plainly: LPS-stimulated TNFα production in mouse B cells (ELISA). Particulars: culture supernatant, 10 μM compound 1 day, then 10 μg/mL LPS 2 days, control 15.13, LPS alone 296.31 pg/mL. The format is cell-based. The procedure:
The inhibitory effect of compounds on TNFα production involved in cytokine storm was examined using mouse B cells.
Mouse B cells were pre-cultured with RPMI1640 medium for 1 day. After incubation, mouse B cells were treated with 10 μM mangiferin 8a, 10 μM norathyriol, 1 μM M9, and 1 μM M14 for 1 day. Then, 10 μg/mL LPS was added to mouse B cells and cultured for 2 days. After incubation, the culture supernatant was collected and TNFα production was determined by enzyme-linked immunosorbent assay (ELISA). This measurement was performed using a mouse TNFα ELISA kit (R&D).
(In general: ELISA stands for enzyme-linked immunosorbent assay.)

Test [2] has as its system TNFα mRNA. Put plainly: LPS-stimulated TNFα mRNA expression in mouse B cells (real time PCR). Particulars: 10 μM compound 1 day, then 10 μg/mL LPS 4 h, vs LPS-treated group. The format is cell-based. The procedure:
The inhibitory effect of compounds on TNFα mRNA expression involved in cytokine storm was examined using mouse B cells.
(§1) Mouse B cells were pre-cultured with RPMI1640 medium for 1 day. After incubation, mouse B cells were treated with 10 μM mangiferin 8a, 10 μM norathyriol, 1 μM M9, and 1 μM M14 for 1 day. Then, 10 μg/mL LPS was added to mouse B cells and cultured for 4 h. After incubation, cells were collected, RNA was extracted, and TNFα mRNA expression was measured by real time PCR.
(§2) For controls, only 0.5% DMSO (diluted in PBS) used to dissolve the compounds was added. 10 μg/mL LPS administered is called the LPS-treated group, LPS and mangiferin 8a administered in combination is called the mangiferin 8a-treated group, LPS and norathyriol administered in combination is called the norathyriol group, LPS and M9 administered in combination is called the M9-treated group, LPS and M14 administered in combination is called the M14-treated group, respectively.

The test system of test [3] is IL-6 mRNA. Put plainly: LPS-stimulated IL-6 mRNA expression in mouse B cells (real time PCR). Format: cell-based. Particulars: 10 μM compound 1 day, then 10 μg/mL LPS 4 h, vs LPS-treated group. The procedure: as §1
The inhibitory effect of compounds on IL-6 mRNA expression involved in cytokine storm was examined using mouse B cells. The experimental procedure is the same as in Example 1.
as §2

For test [4], the system named is TNFα mRNA. The test can be described thus: LPS-stimulated TNFα mRNA expression in mouse macrophages (real time PCR). The format is cell-based. The settings on record: 10 μM compound 1 day, then 10 μg/mL LPS 4 h, vs LPS-treated group. The procedure: The inhibitory effect of compounds on TNFα mRNA expression involved in cytokine storm was examined using mouse macrophages.
(§3) Mouse macrophages were pre-cultured with RPMI1640 medium for 1 day. After incubation, mouse macrophages were treated with 10 μM mangiferin 8a, 10 μM norathyriol, 1 μM M9, and 1 μM M14 for 1 day. Then, 10 μg/mL LPS was added to mouse macrophages and cultured for 4 h. After incubation, cells were collected, RNA was extracted, and TNFα mRNA expression was measured by real time PCR.
as §2
A general note: In qPCR the cycle at which signal appears reflects the starting amount.

The subject of test [5] is IL-6. The test can be described thus: LPS-stimulated IL-6 production in mouse macrophages (ELISA). The format is cell-based. The settings on record: culture supernatant, 10 μM compound 1 day, then 10 μg/mL LPS 2 days, control 13.13, LPS alone 321.13 pg/mL. The procedure: The inhibitory effect of compounds on IL-6 production involved in cytokine storm was examined using mouse macrophages.
Mouse macrophages were pre-cultured with RPMI1640 medium for 1 day. After incubation, mouse macrophages were treated with 10 μM mangiferin 8a, 10 μM norathyriol, 1 μM M9, and 1 μM M14 for 1 day. Then, 10 μg/mL LPS was added to mouse macrophages and cultured for 2 days. After incubation, the culture supernatant was collected and IL-6 production was determined by enzyme-linked immunosorbent assay (ELISA). This measurement was performed using a mouse IL-6 ELISA kit (R&D).

The test system of test [6] is TNFα. The test can be described thus: LPS-stimulated TNFα production in mouse macrophages (ELISA). The format is cell-based. The settings on record: culture supernatant, 10 μM compound 1 day, then 10 μg/mL LPS 2 days, control 24.11, LPS alone 421.13 pg/mL. The procedure: The inhibitory effect of compounds on TNFα production involved in cytokine storm was examined using mouse macrophages.
Mouse macrophages were pre-cultured with RPMI1640 medium for 1 day. After incubation, mouse macrophages were treated with 10 μM mangiferin 8a, 10 μM norathyriol, 1 μM M9, and 1 μM M14 for 1 day. Then, 10 μg/mL LPS was added to mouse macrophages and cultured for 2 days. After incubation, the culture supernatant was collected and TNFα production was determined by enzyme-linked immunosorbent assay (ELISA). This measurement was performed using a mouse TNFα ELISA kit (R&D).

The test system of test [7] is male C57BL/6J. Put plainly: Survival rate of mice treated with compound and LPS (lethality in cytokine storm). The format is in vivo. Particulars: C57BL/6J mice, 50 mg/kg oral, 25 mg/kg LPS i.p. 5 min later, day 2; compared to LPS group. The procedure: Six-week-old male C57BL/6J (SHIMIZU Laboratory Supplies Co., Ltd.) were orally administered 50 mg/kg mangiferin 8a, 100 mg/kg norathyriol, 50 mg/kg M9, and 50 mg/kg M14. Five minutes later, 25 mg/kg LPS was administered intraperitoneally. The day of administration was set as day 0, and the survival rate was measured on day 2.
Those not receiving the compound and LPS are referred to as the control group, those receiving 25 mg/kg LPS are referred to as the LPS group, those receiving 50 mg/kg mangiferin 8a and 25 mg/kg LPS are referred to as the mangiferin 8a-treated group, those receiving 100 mg/kg norathyriol and 25 mg/kg LPS are referred to as the norathyriol-treated group, those receiving 50 mg/kg M9 and 25 mg/kg LPS are referred to as the M9-treated group, and those receiving 50 mg/kg M14 and 25 mg/kg LPS are referred to as the M14-treated group.
Referring to FIG. 9, the horizontal axis indicates compound treatment, and the vertical axis indicates survival rate (%).

Test [8] relates to IL-6. Put plainly: LPS-stimulated IL-6 production in mouse B cells (ELISA). The format is cell-based. Particulars: culture supernatant, 10 μM compound 1 day, then 10 μg/mL LPS 2 days, control 9.46, LPS alone 246.13 pg/mL. The procedure: The inhibitory effect of compounds on IL-6 production involved in cytokine storm was examined using mouse B cells.
Mouse B cells were pre-cultured with RPMI1640 medium for 1 day. After incubation, mouse B cells were treated with 10 μM mangiferin 8a, 10 μM norathyriol, 1 μM M9, and 1 μM M14 for 1 day. Then, 10 μg/mL LPS was added to mouse B cells and cultured for 2 days. After incubation, the culture supernatant was collected and IL-6 production was determined by enzyme-linked immunosorbent assay (ELISA). This measurement was performed using a mouse IL-6 ELISAkit (R&D).

The test system of test [9] is IL-6 mRNA. The test can be described thus: LPS-stimulated IL-6 mRNA expression in mouse macrophages (real time PCR). Particulars: 10 μM compound 1 day, then 10 μg/mL LPS 4 h, vs LPS-treated group. Format: cell-based. The procedure: as §3
The inhibitory effect of compounds on IL-6 mRNA expression involved in cytokine storm was examined using mouse macrophages.
The experimental procedure is the same as in Example 3. […] For controls, only 0.5% DMSO (diluted in PBS) used to dissolve the compounds was added. 10 μg/mL LPS administered is called the LPS-treated group, LPS and mangiferin 8a administered in combination is called the mangiferin 8a-treated group, LPS and norathyriol administered in combination is called the norathyriol group, LPS and M9 administered in combination is called the M9-treated group, LPS and M14 administered in combination is called the M14-treated group, respectively.

Regarding `CCC(=O)OC[C@H]1O[C@@H](c2c(O)cc3oc4cc(O)c(O)cc4c(=O)c3c2OC(=O)CC)[C@H](OC(=O)CC)[C@@H](OC(=O)CC)[C@@H]1OC(=O)CC` [mangiferin 8a, 1,2′,3′,4′,6′-penta-O-propionylmangiferin], the TNFα production in test [1] is 59.31 pg/mL; in test [6] it was 65.13 pg/mL. Besides, the “LPS-induced TNFα mRNA expression (ratio to GAPDH mRNA)” value in test [2] and in test [4] was “decrease in LPS-induced TNFα mRNA expression” each time. Further, the “LPS-induced IL-6 mRNA expression (ratio to GAPDH mRNA)” value in test [3] and in [9] was “decrease in LPS-induced IL-6 mRNA expression” in each case. For the same molecule, the values for the IL-6 production in [5] and in [8] were 69.16 pg/mL and 54.13 pg/mL, respectively. In addition, in test [7], the survival rate result is on record as “significantly reduced the decrease in survival”.

The values are drawn from US20240115589A1, “PHARMACEUTICAL COMPOSITION FOR PREVENTING CYTOKINE STORM” (KINKI UNIVERSITY, priority 2021, published 2024).
